Data set [1] concerns Mus musculus. The experiment in a line: In vivo induction of circadian clock modulation in db/db mouse at 30 mg/kg, po. The class given is functional, organism-based.
A short description of data set [2]: MRT in db/db mouse at 30 mg/kg, po qd after 1 to 24 hrs. The data set is classed as ADME, organism-based. Conditions: in vivo.
Data set [3] in a line: Total Cmax in db/db mouse at 30 mg/kg, po qd after 1 to 24 hrs. The class given is ADME, organism-based. Details: dose 30 mg/kg, route oral. Conditions: in vivo.
For data set [4], the system named is Mus musculus. In words: Hypoglycemic activity in obese insulin-resistant db/db mouse assessed as decrease in fasting blood glucose level at 100 mg/kg, po qd dosed for 7 days relative to control. Further details: scale not given: the % may be the effect or the level left. The data set is classed as functional.
Data set [5] can be described thus: Drug uptake in db/db mouse liver at 30 mg/kg, po measured at 1 to 24 hrs. The data set is classed as ADME, organism-based. Conditions: in vivo.
Data set [6] in a line: Plasma concentration in db/db mouse at 30 mg/kg, po measured at 1 to 24 hrs. The data set is classed as ADME, organism-based. Conditions: in vivo.
Data set [7] in a line: Drug uptake in db/db mouse brown adipose at 30 mg/kg, po measured at 1 to 24 hrs. The data set is classed as ADME, organism-based, Brown adipose tissue. Conditions: in vivo.
Data set [8] deals with Mus musculus. In words: Unbound Cmax in db/db mouse at 30 mg/kg, po qd after 1 to 24 hrs. The data set is classed as ADME, organism-based. The settings on record: in vivo.
In data set [9] the test system is Salmonella typhimurium. The experiment in a line: Genotoxicity in Salmonella typhimurium by Ames test. The class given is toxicity, organism-based. Conditions: salmonella enterica subsp. enterica serovar typhimurium.
The test system of data set [10] is Mus musculus. The experiment in a line: Antidiabetic activity in obese insulin-resistant db/db mouse assessed as reduction in blood glucose AUC at 100 mg/kg, po qd dosed for 7 days by oGTT relative to control. The data set is classed as functional. Further details: scale not given: the % may be the effect or the level left.
A short description of data set [11]: Kinetic solubility in simulated gastric fluid. The settings on record: read-out: Kinetic_solubility. The data set is classed as physicochemical.
Data set [12] concerns the target Voltage-gated inwardly rectifying potassium channel KCNH2 (Homo sapiens, UniProt Q12809). In words: Inhibition of human ERG.
The nature of data set [13]: Drug uptake in db/db mouse skeletal muscle at 30 mg/kg, po measured at 1 to 24 hrs. The class given is ADME, organism-based, Skeletal muscle tissue. The settings on record: in vivo.
Data set [14] is described as follows: Drug uptake in db/db mouse white adipose at 30 mg/kg, po measured at 1 to 24 hrs. The settings on record: in vivo. The data set is classed as ADME, organism-based, White adipose tissue.
Data set [15] can be described thus: Half life in db/db mouse at 30 mg/kg, po qd. The data set is classed as ADME, organism-based. Conditions: in vivo.
Data set [16] relates to Mus musculus. The experiment in a line: Antidiabetic activity in obese insulin-resistant po dosed db/db mouse assessed as reduction in blood glucose AUC administered qd for 7 days by oGTT. The class given is functional, organism-based.

These results are taken from ChEMBL document CHEMBL4184118, “Carbazole-containing amides and ureas: Discovery of cryptochrome modulators as antihyperglycemic agents” (Bioorg Med Chem Lett, 2018).

In brackets after ≈: the same amount, converted by molar mass. Activity calls are given as the source filed them.

As usually defined, the MRT is the average time that molecules of a dose stay in the body. Broadly, the Cmax is the maximum level reached in the sampled fluid or tissue. Broadly, the half-life is the time needed for the level to fall by half in the phase considered.

Chain of Voltage-gated inwardly rectifying potassium channel KCNH2 (Q12809 whole entry): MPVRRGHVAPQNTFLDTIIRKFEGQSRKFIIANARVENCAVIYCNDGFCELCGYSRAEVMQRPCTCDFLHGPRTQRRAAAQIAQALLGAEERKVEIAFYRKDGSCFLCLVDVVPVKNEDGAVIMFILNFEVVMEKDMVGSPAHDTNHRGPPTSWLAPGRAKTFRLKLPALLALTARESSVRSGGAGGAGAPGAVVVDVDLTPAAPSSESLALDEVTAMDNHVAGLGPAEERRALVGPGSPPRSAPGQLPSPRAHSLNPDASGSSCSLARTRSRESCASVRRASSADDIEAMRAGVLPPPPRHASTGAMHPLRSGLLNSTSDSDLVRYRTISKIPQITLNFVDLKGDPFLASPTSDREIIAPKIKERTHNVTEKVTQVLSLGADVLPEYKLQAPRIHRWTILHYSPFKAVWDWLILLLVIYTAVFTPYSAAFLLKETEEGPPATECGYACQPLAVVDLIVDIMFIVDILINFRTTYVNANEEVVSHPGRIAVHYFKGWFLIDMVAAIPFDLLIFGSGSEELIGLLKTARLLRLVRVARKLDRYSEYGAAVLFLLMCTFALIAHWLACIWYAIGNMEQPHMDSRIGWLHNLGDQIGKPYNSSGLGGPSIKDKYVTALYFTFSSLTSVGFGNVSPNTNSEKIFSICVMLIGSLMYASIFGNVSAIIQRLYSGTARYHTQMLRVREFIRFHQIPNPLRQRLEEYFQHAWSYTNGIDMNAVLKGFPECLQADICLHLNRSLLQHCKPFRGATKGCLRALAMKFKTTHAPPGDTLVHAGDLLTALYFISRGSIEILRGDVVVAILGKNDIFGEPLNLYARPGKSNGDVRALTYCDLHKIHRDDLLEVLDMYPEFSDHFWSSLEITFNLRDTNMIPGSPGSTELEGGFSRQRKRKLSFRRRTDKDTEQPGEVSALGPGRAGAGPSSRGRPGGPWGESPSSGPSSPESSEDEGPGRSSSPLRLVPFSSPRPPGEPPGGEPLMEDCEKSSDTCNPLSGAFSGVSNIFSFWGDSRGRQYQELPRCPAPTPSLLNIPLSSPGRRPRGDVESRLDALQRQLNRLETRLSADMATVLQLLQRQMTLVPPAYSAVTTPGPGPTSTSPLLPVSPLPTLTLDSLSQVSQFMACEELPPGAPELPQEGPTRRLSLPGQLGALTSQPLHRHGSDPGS

Turning to `O=C1NCCN1CC(O)Cn1c2ccc(F)cc2c2cc(F)ccc21` (stereo unspecified), the outcome in data set [1] was Active. Besides, the MRT in data set [2] amounted to 6.76 h. The compound further had a Cmax in data set [3] of 1090 nM. Further, the Activity in data set [4] is 14%; in data set [9] it was “Non-Toxic”; in data set [10] it was 39%; in data set [16], “Dose-dependent effect”. Moreover, the Drug uptake result in data set [5], in data set [6], in [7], in data set [13] and in data set [14] was “Active” in each case. Besides, the fCmax in data set [8] was determined as 0.056 µM. Moreover, the solubility kinetic in data set [11] was 142 µM (≈ 48.9 µg/mL). Further, the “inhibition (INH)” value in [12] was “Not Active”. This compound had a half-life in [15] of 2.83 h.
